Test results taken from PubChem BioAssay AID1963852 (Molecular Pharmacology Branch, DTP, NCI, 2024).

Test system: 282377-053-R-J1-PDC complex spheroid viability
Assay: Anticancer human tumor 282377-053-R-J1-PDC patient-derived colon adenocarcinoma cell line growth inhibition [POLQ]
Settings: for IC50: curve of first compound; for viability, T/C: stronger effect = lower value
Protocol: Multicellular complex tumor spheroid response to Polymerase (POL) inhibitors (novobiocin, ART-558, RP6685) in combination with a variety of drugs and investigational agents in selected tumor cell lines
The POL inhibitors (novobiocin, ART-558, and RP6685) were evaluated both individually and in combination with standard of care and investigational anticancer small molecules within a complex spheroid model of solid tumors. . Complex spheroids include a stromal component modeled by human endothelial cells (HUVEC) and fibroblasts modeled by human mesenchymal stem cells (MSCs). The concentration ranges selected for each drug and investigational agent were based upon clinically achievable concentrations if the clinical Cmax of the agent was known.
Compounds. The drugs and investigational agents: novobiocin (NSC847541), ART-558 (NSC835418), RP-6685 (NSC848927), peposertib (NSC802822), ceralasertib (NSC780249), elimusertib (NSC800525), camonsertib (NSC841442), AZD-1390 (NSC803789), olaparib (NSC753686), talazoparib (NSC767125), rucaparib (NSC756644), sotorasib (NSC818433), MRTX-1133 (NSC836407), SN-38 (NSC673596), topotecan (NSC609699), epotoside (NSC141540), doxorubicin (NSC123127), gemcitabine (NSC613327), 5-fluorouracil (NSC19893), paclitaxel (NSC125973), vemurafenib (NSC761431), MSA-2 (NSC828583), SN-011 (NSC837082), adavosertib (NSC754352), prexasertib (NSC758257), carboplatin (NSC241240) and oxaliplatin (NSC266046), were obtained from the National Cancer Institute (NCI) Developmental Therapeutics Program Chemical Repository (21). The FDA-approved anticancer drug set is available from the Developmental Therapeutics Program at https://dtp.cancer.gov/organization/dscb/obtaining/. […] The stock solutions were prepared in dimethyl sulfoxide (DMSO, Sigma-Aldrich, St. Louis, MO, cat. D2650), except for the platinum compounds which were prepared in saline (Quality Biological, Gaithersburg, MD, cat. 114-055-101), at 800-fold the tested concentration and stored at -70 degrees C prior to their use. All drugs and investigational agents were tested over a range starting from a high concentration at or near the clinical Cmax and decreasing in half-log increments. If the clinical Cmax for an agent had not been determined, the highest concentration tested was 10 microM, except for SN-38, which was tested at a high concentration of 1 microM.
Cell Culture. All cells were maintained in an incubator at 37 degrees C and 5% CO2 with 95% humidity. The PDC lines were cultured according to standard operating procedures established by the NCI PDMR (https://pdmr.cancer.gov). Table 3 of the manuscript, lists the cell lines along with the number of the three cell types plated to form the mct-spheroids and media for tumor cell growth. After thawing, all PDC lines, except 997537-175-T-J1-PDC and 415267-285-R-J2-PDC, were cultured in Matrigel-coated flasks prepared with a working solution of 1X Ham's F-12 nutrient mix, without supplementation (Thermo Fisher Scientific, cat. 11765054), 100 U/mL penicillin-streptomycin (Thermo Fisher Scientific, cat. 15140122), and 2.5% Matrigel (Corning Inc., Corning, NY, cat. 354248) for the first three passages. The two PDC lines 997537-175-T-J1-PDC and 415267-285-R-J2-PDC were cultured on uncoated flasks. The 857933-349-R-J2-PDC line was cultured in 6C/Colon 1B media containing advanced DMEM/F-12 (Thermo Fisher Scientific, cat. 12634028), 10 mM HEPES (Thermo Fisher Scientific, cat. 15630080), 1X GlutaMAX supplement (Thermo Fisher Scientific, cat. 35050061), 0.1 mg/mL primocin (InvivoGen, San Diego, CA, cat. ant-pm-2), 10% defined fetal bovine serum, heat inactivated (HyClone Laboratories Inc., Logan, UT, cat. SH30070.03HI), 50% L-WRN conditioned media (ATCC, cat. CRL-3276), 1.25 mM N-Acetyl-L-cysteine (Sigma-Aldrich, cat. A9165), 10 mM nicotinamide (Sigma-Aldrich, cat. N0636), 1X B-27 supplement (Thermo Fisher Scientific, cat. 17504044), 1X N-2 supplement (Thermo Fisher Scientific, cat. […]

[1] = second compound 0.0316 µM, first compound 0.0316 µM
[2] = second compound 0.0316 µM, first compound 0.1 µM
[3] = second compound 0.0316 µM, first compound 0.316 µM
[4] = second compound 0.0316 µM, first compound 1 µM
[5] = second compound 0.1 µM, first compound 0.0316 µM
[6] = second compound 0.1 µM, first compound 0.1 µM
[7] = second compound 0.1 µM, first compound 0.316 µM
[8] = second compound 0.1 µM, first compound 1 µM
[9] = second compound 0.316 µM, first compound 0.0316 µM
[10] = second compound 0.316 µM, first compound 0.1 µM
[11] = second compound 0.316 µM, first compound 0.316 µM
[12] = second compound 0.316 µM, first compound 1 µM
[13] = second compound 1 µM, first compound 0.0316 µM
[14] = second compound 1 µM, first compound 0.1 µM
[15] = second compound 1 µM, first compound 0.316 µM
[16] = second compound 1 µM, first compound 1 µM
[17] = second compound 3.16 µM, first compound 0.0316 µM
[18] = second compound 3.16 µM, first compound 0.1 µM
[19] = second compound 3.16 µM, first compound 0.316 µM
[20] = second compound 3.16 µM, first compound 1 µM
[21] = second compound 10 µM, first compound 0.0316 µM
[22] = second compound 10 µM, first compound 0.1 µM
[23] = second compound 10 µM, first compound 0.316 µM
[24] = second compound 10 µM, first compound 1 µM
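Note: spheroids exposed to compounds for seven days.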
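Throughout, for viability, T/C: 100% = DMSO vehicle control viability.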

C=CCn1c(=O)c2cnc(Nc3ccc(N4CCN(C)CC4)cc3)nc2n1-c1cccc(C(C)(C)O)n1 + COC1C(OC(N)=O)C(O)C(Oc2ccc3c(O)c(NC(=O)c4ccc(O)c(CC=C(C)C)c4)c(=O)oc3c2C)OC1(C)C
IC50 (second compound 0.0316 µM): > 1 µM
IC50 (second compound 0.1 µM): > 1 µM
IC50 (second compound 0.316 µM): > 1 µM
IC50 (second compound 1 µM): > 1 µM
IC50 (second compound 3.16 µM): > 1 µM
IC50 (second compound 10 µM): > 1 µM
viability, T/C (second compound 0.0316 µM, first compound 0.00316 µM): 85.2%
viability, T/C (second compound 0.0316 µM, first compound 0.01 µM): 97.7%
viability, T/C [1]: 147%
viability, T/C [2]: 120%
viability, T/C [3]: 91.7%
viability, T/C [4]: 64.7%
viability, T/C (second compound 0.1 µM, first compound 0.00316 µM): 122%
viability, T/C (second compound 0.1 µM, first compound 0.01 µM): 108%
viability, T/C [5]: 94.4%
viability, T/C [6]: 118%
viability, T/C [7]: 99.1%
viability, T/C [8]: 89.9%
viability, T/C (second compound 0.316 µM, first compound 0.00316 µM): 113%
viability, T/C (second compound 0.316 µM, first compound 0.01 µM): 109%
viability, T/C [9]: 134%
viability, T/C [10]: 96.3%
viability, T/C [11]: 98.7%
viability, T/C [12]: 81.7%
viability, T/C (second compound 1 µM, first compound 0.00316 µM): 114%
viability, T/C (second compound 1 µM, first compound 0.01 µM): 90.5%
viability, T/C [13]: 93.1%
viability, T/C [14]: 109%
viability, T/C [15]: 110%
viability, T/C [16]: 67.8%
viability, T/C (second compound 3.16 µM, first compound 0.00316 µM): 118%
viability, T/C (second compound 3.16 µM, first compound 0.01 µM): 120%
viability, T/C [17]: 78.4%
viability, T/C [18]: 91.5%
viability, T/C [19]: 105%
viability, T/C [20]: 76.4%
viability, T/C (second compound 10 µM, first compound 0.00316 µM): 88.5%
viability, T/C (second compound 10 µM, first compound 0.01 µM): 91.8%
viability, T/C [21]: 87.2%
viability, T/C [22]: 102%
viability, T/C [23]: 96.7%
viability, T/C [24]: 75.5%

CC1COCCN1c1cc(C2(S(C)(=N)=O)CC2)nc(-c2ccnc3[nH]ccc23)n1 (centres undefined) + COC1C(OC(N)=O)C(O)C(Oc2ccc3c(O)c(NC(=O)c4ccc(O)c(CC=C(C)C)c4)c(=O)oc3c2C)OC1(C)C
IC50 (second compound 0.0316 µM): > 10 µM
IC50 (second compound 0.1 µM): 5.46 µM
IC50 (second compound 0.316 µM): 6.61 µM
IC50 (second compound 1 µM): 7.63 µM
IC50 (second compound 3.16 µM): 6.86 µM
IC50 (second compound 10 µM): 9.91 µM
viability, T/C [1]: 108%
viability, T/C [2]: 89.1%
viability, T/C [3]: 110%
viability, T/C [4]: 76.9%
viability, T/C (second compound 0.0316 µM, first compound 3.16 µM): 74.9%
viability, T/C (second compound 0.0316 µM, first compound 10 µM): 56.7%
viability, T/C [5]: 92.4%
viability, T/C [6]: 104%
viability, T/C [7]: 88.5%
viability, T/C [8]: 72.1%
viability, T/C (second compound 0.1 µM, first compound 3.16 µM): 61.9%
viability, T/C (second compound 0.1 µM, first compound 10 µM): 39.6%
viability, T/C [9]: 103%
viability, T/C [10]: 82.1%
viability, T/C [11]: 83.6%
viability, T/C [12]: 81%
viability, T/C (second compound 0.316 µM, first compound 3.16 µM): 80.4%
viability, T/C (second compound 0.316 µM, first compound 10 µM): 33.9%
viability, T/C [13]: 115%
viability, T/C [14]: 90.2%
viability, T/C [15]: 91.5%
viability, T/C [16]: 81%
viability, T/C (second compound 1 µM, first compound 3.16 µM): 79.5%
viability, T/C (second compound 1 µM, first compound 10 µM): 39.9%
viability, T/C [17]: 99%
viability, T/C [18]: 93.3%
viability, T/C [19]: 85.3%
viability, T/C [20]: 107%
viability, T/C (second compound 3.16 µM, first compound 3.16 µM): 59.6%
viability, T/C (second compound 3.16 µM, first compound 10 µM): 45.3%
viability, T/C [21]: 104%
viability, T/C [22]: 119%
viability, T/C [23]: 79.8%
viability, T/C [24]: 92.3%
viability, T/C (second compound 10 µM, first compound 3.16 µM): 66.1%
viability, T/C (second compound 10 µM, first compound 10 µM): 49.7%
